Columns and labels:
children with autism [1] = assay: 12-week placebo-controlled study of NAC: Clinical Global Impression (CGI); format: in vivo, human
Source text: The Clinical Global Impression (CGI) rating scales are commonly used measures of symptom severity, treatment response and the efficacy of treatments in treatment studies of patients with mental disorders (Guy, W., 1976, ECDEU Assessment Manual for Psychopharmacology, Rockville, Md., U.S. Department of Health, Education, and Welfare). The Clinical Global Impression-Severity scale (CGI-S) is a 7-point scale that requires the clinician to rate the severity of the patient's illness at the time of assessment, relative to the clinician's past experience with patients who have the same diagnosis. Considering total clinical experience, a patient is assessed on severity of mental illness at the time of rating 1=normal, not at all ill; 2=borderline mentally ill; 3=mildly ill; 4=moderately ill; 5=markedly ill; 6=severely ill; or 7=extremely ill.
A 12-week, double-blind randomized, placebo-controlled study of NAC in children with autism was conducted in the Autism & Developmental Disabilities Clinic in the Division of Child & Adolescent Psychiatry at Stanford University Medical Center. The recruitment period started in March 2009 and ended in September 2010. Subjects with and without mental retardation were included. After obtaining informed consent, subjects were screened and inclusion and exclusion criteria were assessed. No changes in eligibility criteria were applied throughout the study. This investigation was approved by the institutional review board at Stanford University School of Medicine. An investigational new drug application (IND#100905) was filed with the Food and Drug Administration, and the study was registered in National Institutes of Health at ClinicalTrials.gov (identifier number NCT00627705).
(§1) After the screening phase, baseline measures were obtained from subjects continuing to meet inclusion and exclusion criteria. Subjects were then randomized to either placebo or active based on age and gender. As NAC is a nutritional supplement, the quality control is predictably variable and therefore purity is not as stringent as prescription medications. Therefore, in the present study, the stability of the compound was ascertained and the integrity of the active agent was protected by packaging each NAC doses in individual pockets. The active compound and matching placebo were provided by BioAdvantex Pharma, Inc. (Mississauga, Ontario, Canada). […] Subjects randomized to the active drug were initiated at the dose of 900 mg every day for the first 4 weeks, then 900 mg twice daily for 4 weeks and 900 mg three times daily for 4 weeks. (This dose selection was based on previously published studies for other psychiatric conditions (Grant, J. et al., Arch Gen Psychiatry, 66:468-475 (2009); Berk, M. et al., Biol Psychiatry, 64:361-368 (2008); Berk, M. et al., Bio Psychiatry, 64:468-475 (2008)) and the previous experience of our group in studies of children with cystic fibrosis). Alternatively, subjects were initiated at the dose of 900 mg per day, 1,800 mg per day, or 2,700 mg per day of NAC. Alternatively, the subjects were initiated at the dose ranging from 900 mg per day to 2,700 mg per day of NAC.
If a subject could not tolerate a specific dose, s/he would be maintained at the highest tolerated dose. Subjects were evaluated at baseline, week 4, week 8 and week 12. The Aberrant Behavioral Checklist (ABC) (Aman, M. et al., Am J Ment Defic. 89:492-502 (1985)), the Clinical Global Impressions (CGI) (Guy, W., ECDEU Assessment Manual for Psychopharmacology, Rockville, Md., U.S. Department of Health, Education, and Welfare (1976)), and the Dosage Record and Treatment Emergent Symptom Scale (DOTES) (Guy, W., 1976, ECDEU Assessment Manual for Psychopharmacology, Rockville, Md., U.S. Department of Health, Education, and Welfare) were obtained in each visit. […]

children with autism [2] = assay: 12-week placebo-controlled study of NAC: safety evaluation, adverse events (DOTES); format: in vivo, human
Source text: Primary behavioral outcome measures, include, for example, but are not limited to, (a) the Aberrant Behavior Checklist (ABC) irritability subscale; and (b) Dosage Record and Treatment Emergent Symptom Scale (DOTES), which provides information on the presence, frequency and severity of side effects (Guy, W., ECDEU Assessment Manual for Psychopharmacology, Rockville, Md., U.S. Department of Health, Education, and Welfare (1976)). Secondary behavioral outcome measures include, but are not limited to, (a) the Clinical Global Impression (CGI); (b) ABC-Stereotypy subscale; (c) Repetitive Behavior Scale (RBS); and (d) Social responsiveness scale (SRS).
as §1
If a subject could not tolerate a specific dose, s/he would be maintained at the highest tolerated dose. Subjects were evaluated at baseline, week 4, week 8 and week 12. The Aberrant Behavioral Checklist (ABC) (Aman, M. et al., Am J Ment Defic. 89:492-502 (1985)), the Clinical Global Impressions (CGI) (Guy, W., ECDEU Assessment Manual for Psychopharmacology, Rockville, Md., U.S. Department of Health, Education, and Welfare (1976)), and the Dosage Record and Treatment Emergent Symptom Scale (DOTES) (Guy, W., 1976, ECDEU Assessment Manual for Psychopharmacology, Rockville, Md., U.S. Department of Health, Education, and Welfare) were obtained in each visit. Additional secondary measures were obtained at baseline and at week 12 and included the social responsiveness scale (SRS) (Constantino, J. et al., J. Dev Behav Pediatr., 21:2-11 (2000); Constantino, J. et al., J Autism Dev Disord., 33:427-433 (2003)), and the repetitive behavior scale-revised (RBS-R) (Bodfish, J. et al., The Repetitive Behavior Scale: A test manual (1998)).
The following adverse events (AEs) were more frequently reported in the NAC group than the placebo group, but differences were not statistically different (all p>0.100): depressed affect (1 vs. 0), akathisia (1 vs. 0), constipation (3 vs. 2), nausea/vomiting (6 vs. 3), increased appetite (2 vs. 0), diarrhea (3 vs. 1). The following AEs were reported more in the placebo group than the NAC group: excitement/agitation (3 vs. 2), increased motor activity (3 vs. 2), nasal congestion (6 vs. 4), decreased appetite (3 vs. 2), tremor (1 vs. 0), sweating (1 vs. 0), syncope/dizziness (1 vs. 0), increased salivation (2 vs. 0). One subject in each group reported insomnia and stomachache.

[3] = standardized mean difference NAC vs placebo at Week 12
[4] = NAC group, same in placebo group

CC(=O)N[C@@H](CS)C(=O)O [NAC, N-acetylcysteine]
CGI severity, Mean (SD) (children with autism [1]; Baseline (before treatment), NAC group n = 15): 5.1 (0.7) | CGI improvement, Mean (SD) (children with autism [1]; Week 12, NAC n = 14): 2.9 (1.1) | CGI severity, Mean (SD) (children with autism [1]; Week 12, NAC n = 14, 7-point scale): 4.5 (0.8) | CGI-S global severity, pattern NAC vs placebo (children with autism [1]; all randomized participants, p=0.170): no significant differences | CGI-I improvement, pattern NAC vs placebo (children with autism [1]; all randomized participants, p=0.449): no significant differences | CGI improvement, Cohen's d (children with autism [1]; [3]): .30 | CGI severity, Cohen's d (children with autism [1]; [3]): .47 | side effects observed, overall (children with autism [2]; 12-week study, up to 900 mg three times daily): Minimal side effects | adverse event reported: akathisia (count) (children with autism [2]; NAC group, placebo 0, p>0.100): 1 | adverse event reported: depressed affect (count) (children with autism [2]; NAC group, placebo 0, p>0.100): 1 | adverse event reported: increased appetite (count) (children with autism [2]; NAC group, placebo 0, p>0.100): 2 | adverse event reported: sweating (count) (children with autism [2]; NAC group, placebo 1): 0 | adverse event reported: syncope/dizziness (count) (children with autism [2]; NAC group, placebo 1): 0 | adverse event reported: tremor (count) (children with autism [2]; NAC group, placebo 1): 0 | adverse event reported: diarrhea (count) (children with autism [2]; NAC group, placebo 1, p>0.100): 3 | adverse event reported: increased salivation (count) (children with autism [2]; NAC group, placebo 2): 0 | adverse event reported: constipation (count) (children with autism [2]; NAC group, placebo 2, p>0.100): 3 | adverse event reported: decreased appetite (count) (children with autism [2]; NAC group, placebo 3): 2 | adverse event reported: excitement/agitation (count) (children with autism [2]; NAC group, placebo 3): 2 | adverse event reported: increased motor activity (count) (children with autism [2]; NAC group, placebo 3): 2 | adverse event reported: nausea/vomiting (count) (children with autism [2]; NAC group, placebo 3, p>0.100): 6 | adverse event reported: nasal congestion (count) (children with autism [2]; NAC group, placebo 6): 4 | adverse event reported: insomnia (subjects) (children with autism [2]; [4]): One | adverse event reported: stomachache (subjects) (children with autism [2]; [4]): One | subjects with worsening of baseline agitation and irritability requiring early termination (children with autism [2]; active group, later medical evaluation revealed severe constipation): one

Reference: patent US20130296430A1, “COMPOSITIONS AND METHODS FOR TREATING AUTISM AND AUTISM SPECTRUM DISORDER” (priority 2012, published 2013)
